We go through 23 molecules from PubChem BioAssay AID248 (DTP/NCI, 2004).

This assay has as its system L1210 leukemia ip in BDF1 mice, survival T/C. Kind of assay: NCI In Vivo Anticancer Drug Screen. Data for tumor model L1210 Leukemia (intraperitoneal) in B6D2F1 (BDF1) mice. The following applies: endpoint: mean survival time, higher = longer survival. The method, boiled down: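 Tumor was transplanted into mice, which were then dosed with test compound or vehicle alone. Survival was recorded for each group, and the treated figure was expressed relative to the control figure.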

[1] abbreviates: dose: 100.0 mg/kg/injection, schedule: Q04DX003 (ip), vehicle: saline with Tween-80.
The mark [2] stands for this setting: dose: 200.0 mg/kg/injection, schedule: Q04DX003 (ip), vehicle: saline with Tween-80.
Setting [3] is: dose: 400.0 mg/kg/injection, schedule: Q04DX003 (ip), vehicle: saline with Tween-80.
Setting [4] is: dose: 50.0 mg/kg/injection, schedule: Q04DX003 (ip), vehicle: saline with Tween-80.
Where [5] appears, read: dose: 100.0 mg/kg/injection, schedule: Q04DX002 (ip), vehicle: gum acacia.
Setting [6] is: dose: 200.0 mg/kg/injection, schedule: Q04DX002 (ip), vehicle: gum acacia.
[7] abbreviates: dose: 50.0 mg/kg/injection, schedule: Q01DX009 (ip), vehicle: saline with Tween-80.
Setting [8] is: dose: 100.0 mg/kg/injection, schedule: Q01DX001 (ip), vehicle: saline.
[9] abbreviates: dose: 200.0 mg/kg/injection, schedule: Q01DX001 (ip), vehicle: saline.
Setting [10] is: dose: 400.0 mg/kg/injection, schedule: Q01DX001 (ip), vehicle: saline.
Where [11] appears, read: dose: 200.0 mg/kg/injection, schedule: Q01DX001 (ip), vehicle: carboxymethylcellulose (CMC).
Setting [12] is: dose: 400.0 mg/kg/injection, schedule: Q01DX001 (ip), vehicle: carboxymethylcellulose (CMC).
[13] abbreviates: dose: 100.0 mg/kg/injection, schedule: Q01DX001 (ip), vehicle: saline with Tween-80.
Where [14] appears, read: dose: 200.0 mg/kg/injection, schedule: Q01DX001 (ip), vehicle: saline with Tween-80.
[15] abbreviates: dose: 400.0 mg/kg/injection, schedule: Q01DX001 (ip), vehicle: saline with Tween-80.

Inconclusive results and toxic doses are left out.

For `CS/C(N)=N\C(=S)Nc1ccccc1`, the T/C is 95 % of control under setting [1], 97 % of control under setting [2] and 101 % of control under setting [3].
Regarding `CCCCCCCCCC[P+](=O)CCCCCCCCCC`, the T/C by setting is: (dose: 25.0 mg/kg/injection, schedule: Q04DX003 (ip), vehicle: saline with Tween-80) 92 % of control; under setting [4], 89 % of control; under setting [2], 89 % of control; under setting [3], 89 % of control.
Turning to `CNc1cc(N2CCCC2)ccn1`, the T/C reads like this: (dose: 5.0 mg/kg/injection, schedule: Q01DX001 (ip), vehicle: saline) 104 % of control; (dose: 10.0 mg/kg/injection, schedule: Q01DX001 (ip), vehicle: saline) 110 % of control.
For the molecule `CCCC(C(=O)O)(c1ccccc1)c1ccccc1`, the T/C reads like this: under setting [5], 96 % of control; under setting [6], 104 % of control.
As for `Cc1nc2sc3c(c2c(=O)[nH]1)CCCC3`, the T/C reads like this: (dose: 50.0 mg/kg/injection, schedule: Q01DX001 (ip), vehicle: saline sonified) 122 % of control; (dose: 100.0 mg/kg/injection, schedule: Q01DX001 (ip), vehicle: saline sonified) 103 % of control; (dose: 200.0 mg/kg/injection, schedule: Q01DX001 (ip), vehicle: saline sonified) 101 % of control.
As for `c1ccc(CSc2nccc(NN=C3CCCCC3)n2)cc1`, the T/C runs as follows: (dose: 25.0 mg/kg/injection, schedule: Q01DX001 (ip), vehicle: DMSO) 90 % of control; (dose: 50.0 mg/kg/injection, schedule: Q01DX001 (ip), vehicle: DMSO) 88 % of control; (dose: 75.0 mg/kg/injection, schedule: Q01DX009 (ip), vehicle: DMSO) 92 % of control; (dose: 100.0 mg/kg/injection, schedule: Q01DX001 (ip), vehicle: DMSO) 88 % of control; (dose: 150.0 mg/kg/injection, schedule: Q01DX009 (ip), vehicle: DMSO) 94 % of control; (dose: 200.0 mg/kg/injection, schedule: Q01DX001 (ip), vehicle: DMSO) 91 % of control. In addition, the T/C (dose: 400.0 mg/kg/injection, schedule: Q01DX001 (ip), vehicle: DMSO) is 100 % of control.
As to `O=C(C=C(C(F)(F)F)C(F)(F)F)c1ccc(-c2ccccc2)cc1`, the T/C by setting is: (dose: 25.0 mg/kg/injection, schedule: Q01DX009 (ip), vehicle: saline with Tween-80) 98 % of control; under setting [7], 98 % of control; under setting [4], 92 % of control; under setting [1], 87 % of control; under setting [2], 86 % of control.
For the molecule `COC(=O)C1=C(C(=O)OC)C2CCC1C2`, the T/C (dose: 100.0 mg/kg/injection, schedule: Q01DX009 (ip), vehicle: other) was 103 % of control; the T/C (dose: 200.0 mg/kg/injection, schedule: Q01DX009 (ip), vehicle: other) was 103 % of control; the T/C (dose: 400.0 mg/kg/injection, schedule: Q01DX009 (ip), vehicle: other) was 98 % of control.
Turning to `COS(=O)(=O)c1ccc[n+](C)c1`, the T/C runs as follows: (dose: 50.0 mg/kg/injection, schedule: Q01DX001 (ip), vehicle: saline) 100 % of control; under setting [8], 105 % of control; under setting [9], 98 % of control; under setting [10], 96 % of control.
Turning to `CCOC(=O)c1ccc(N2C(=O)c3cccc4cccc(c34)C2=O)c([N+](=O)[O-])c1`, the T/C is 97 % of control under setting [1], 93 % of control under setting [2] and 95 % of control under setting [3].
On to `O=C(NN(c1ccccc1)c1cccc2ccccc12)c1ccccc1`, for which the T/C was 103 % of control (dose: 50.0 mg/kg/injection, schedule: Q01DX009 (ip), vehicle: Klucel (hydroxypropylcellulose) (HPC)); 103 % of control (dose: 100.0 mg/kg/injection, schedule: Q01DX009 (ip), vehicle: Klucel (hydroxypropylcellulose) (HPC)); 89 % of control (dose: 100.0 mg/kg/injection, schedule: Q04DX003 (ip), vehicle: Klucel (hydroxypropylcellulose) (HPC)); 97 % of control (dose: 200.0 mg/kg/injection, schedule: Q01DX009 (ip), vehicle: Klucel (hydroxypropylcellulose) (HPC)); 93 % of control (dose: 200.0 mg/kg/injection, schedule: Q04DX003 (ip), vehicle: Klucel (hydroxypropylcellulose) (HPC)); 100 % of control (dose: 400.0 mg/kg/injection, schedule: Q01DX009 (ip), vehicle: Klucel (hydroxypropylcellulose) (HPC)). The T/C (dose: 400.0 mg/kg/injection, schedule: Q04DX003 (ip), vehicle: Klucel (hydroxypropylcellulose) (HPC)) is 94 % of control.
Consider `COC(=O)NC1c2ccccc2CCC1I` (stereo not drawn), for which the T/C under setting [7] is 94 % of control; the T/C (dose: 100.0 mg/kg/injection, schedule: Q01DX009 (ip), vehicle: saline with Tween-80) was 90 % of control; the T/C (dose: 200.0 mg/kg/injection, schedule: Q01DX009 (ip), vehicle: saline with Tween-80) is 92 % of control.
Regarding `N#CC1C(=O)NC(=O)C(C#N)C12CCN(Cc1ccccc1)CC2` (stereo not drawn), the T/C by setting is: (dose: 100.0 mg/kg/injection, schedule: Q01DX001 (ip), vehicle: Klucel (hydroxypropylcellulose) (HPC)) 102 % of control; (dose: 200.0 mg/kg/injection, schedule: Q01DX001 (ip), vehicle: Klucel (hydroxypropylcellulose) (HPC)) 97 % of control; (dose: 400.0 mg/kg/injection, schedule: Q01DX001 (ip), vehicle: Klucel (hydroxypropylcellulose) (HPC)) 103 % of control.
For the molecule `COC(=O)c1cccc2c1C1CCC2c2cccc(C(=O)OC)c21`, the T/C by setting is: under setting [5], 101 % of control; under setting [6], 96 % of control; (dose: 400.0 mg/kg/injection, schedule: Q04DX002 (ip), vehicle: gum acacia) 99 % of control.
With `CC(=O)Oc1cc2c3c(c1)CCCN3CCC2`, the T/C is, setting by setting: (dose: 1.25 mg/kg/injection, schedule: Q01DX009 (ip), vehicle: saline) 101 % of control; (dose: 2.5 mg/kg/injection, schedule: Q01DX009 (ip), vehicle: saline) 106 % of control; (dose: 5.0 mg/kg/injection, schedule: Q01DX009 (ip), vehicle: saline) 98 % of control.
In the case of `CCCCC(=O)N/N=C\c1cc([N+](=O)[O-])ccc1O`, the T/C reads like this: (dose: 100.0 mg/kg/injection, schedule: Q01DX001 (ip), vehicle: carboxymethylcellulose (CMC)) 91 % of control; under setting [11], 98 % of control; under setting [12], 87 % of control.
For the molecule `O=S(=O)(/N=C1C=C/C(=N\S(=O)(=O)c2ccccc2)C(Sc2ccccc2)=C\1)c1ccccc1`, the T/C under setting [13] is 91 % of control, the T/C under setting [14] is 94 % of control and the T/C under setting [15] was 105 % of control.
Consider `OC1(c2ccccc2)c2cscc2C(O)(c2ccccc2)c2c(Cl)sc(Cl)c21` (stereo not drawn), for which the T/C was 91 % of control under setting [13] and 87 % of control under setting [15].
For `CC(=O)Nc1c(C)cc(C)c(F)c1Br`, the T/C (dose: 37.5 mg/kg/injection, schedule: Q01DX001 (ip), vehicle: Klucel (hydroxypropylcellulose) (HPC)) was 97 % of control; the T/C (dose: 75.0 mg/kg/injection, schedule: Q01DX001 (ip), vehicle: Klucel (hydroxypropylcellulose) (HPC)) is 95 % of control; the T/C (dose: 150.0 mg/kg/injection, schedule: Q01DX001 (ip), vehicle: Klucel (hydroxypropylcellulose) (HPC)) is 95 % of control.
On to `O=NN(CCCl)C(=O)Nc1ccc2ccccc2c1`, for which the T/C was 161 % of control under setting [11]; 172 % of control (dose: 300.0 mg/kg/injection, schedule: Q01DX001 (ip), vehicle: carboxymethylcellulose (CMC)); 96 % of control under setting [12].
Turning to `CCOC(=O)C(OC(=O)c1ccccc1)C(OC(=O)c1ccccc1)C(=O)OCC` (stereo not drawn), the T/C under setting [8] is 102 % of control, the T/C under setting [9] is 100 % of control and the T/C under setting [10] was 93 % of control.
On to `Cc1ccc2ncccc2c1N` (tested in a mixture with another compound), for which the T/C (dose: 100.0 mg/kg/injection, schedule: Q04DX003 (ip), vehicle: gum acacia) was 93 % of control; the T/C (dose: 200.0 mg/kg/injection, schedule: Q04DX003 (ip), vehicle: gum acacia) was 98 % of control; the T/C (dose: 400.0 mg/kg/injection, schedule: Q04DX003 (ip), vehicle: gum acacia) was 94 % of control.
Regarding `C1CCC(CCC(CCCC2CCCC2)CCCC2CCCC2)CC1`, the T/C is, setting by setting: under setting [13], 97 % of control; under setting [14], 92 % of control; under setting [15], 101 % of control.
